Structures can show the parent of a compound that is named as a salt.
These molecules were tested on arteria pulmonalis of the guinea pig (assay: Relaxing action on potassium-depolarized, CaCl2-contracted spiral strips of guinea pig pulmonary artery (modified method of Godfraind and Kaba and of Schuman et al)). Details: Cavia porcellus; spiral strips depolarized with 40 mmol/l potassium; contraction initiated with 0.5 mmol/l CaCl2; cumulative addition; mean value of 4 to 6 strips of vessel; read-out: IC50 (concentration of test substance which inhibits the contraction by 50%).
Type: cell-based
Description: The pharmacological action of the compounds of the formula I has been determined by a modified method of Godfraind and Kaba (Arch. Int. Pharmacodyn. Ther. 196, (Suppl) 35 to 49, 1972) and of Schuman et al (Naunyn-Schmiedeberg's Arch Pharmacol. 289 409 to 418, 1975). […], spiral strips of the arteria pulmonalis of the guinea pig are depolarized with 40 mmol/l of potassium after equilibration in calcium-free tyrode solution. Addition of 0.5 mmol/l of CaCl2 then initiates a contraction. The relaxing action of the test substance is determined by cumulative addition in concentrations in steps of 1/2 log 10. The concentration of test substance which inhibits the contraction by 50% (=IC50, mol/l) is determined from the concentration/effects curve (abscissa: -log mol/l of test substance, ordinate: % inhibition of the maximum concentration, mean value of 4 to 6 strips of vessel).

IC50 [µM] | SMILES
30 | CC1(C)CCCC(C)(C)N1[n+]1cc(=N)o[n-]1 [a, 3-(2,2,6,6-Tetramethylpiperidino)-sydnonimine hydrochloride]
3 | CC(C)N1CC(C)(C)N([n+]2cc(=N)o[n-]2)C(C)(C)C1 [b, 3-(2,2,6,6-Tetramethyl-4-isopropyl-piperazin-1-yl)sydnonimine dihydrochloride]
100 | CC1(C)COCC(C)(C)N1[n+]1cc(=N)o[n-]1 [c, 3-(3,3,5,5-Tetramethylmorpholino)-sydnonimine hydrochloride]
300 | CCOC(=O)[N-]c1cn(N2CCOCC2)n[o+]1 [d, N-Ethoxycarbonyl-3-morpholinosydnonimine, reference compound]
